Data: the CombiSolv-Exp solvation set (Vermeire and Green 2021)

Assay: solvent given as SMILES

Cc1cnccn1
Settings | solvation free energy, 298 K [kcal/mol]
in O | -5.51

Clc1ccc(Br)cc1
Settings | solvation free energy, 298 K [kcal/mol]
in CC(C)CO | -6.51
in CCCCOCCCC | -7.08
in COC(C)(C)C | -7.27
in O | -1.61

CCCCc1ccccc1
Settings | solvation free energy, 298 K [kcal/mol]
in C1CCOC1 | -7.33
in CC#N | -6.1
in CC(C)O | -5.98
in CCC(C)=O | -6.73
in CCCCCCC | -6.58
in CCCCCCCCCCCCCCCC | -6.44
in CCO | -5.72
in CO | -5.81
in O | -0.37
in O=Cc1ccco1 | -5.99
in OCCOCCO | -4.81

CCC(C)C
Settings | solvation free energy, 298 K [kcal/mol]
in C1=Cc2ccccc2C1 | -2.54
in C=CCCCCCCCCCCCCCC | -2.66
in CC#N | -1.9
in CC(=O)N(C)C | -1.98
in CC(C)(C)O | -2.56
in CCCCCCCCCCCCCCCC | -2.76
in CCCCCCCCCOC(=O)c1ccccc1C(=O)OCCCCCCCCC | -2.36
in CCNC(C)=O | -2.22
in CN1CCCC1=O | -1.8
in CN1CCCCC1=O | -2.01
in CN(C)C=O | -1.9
in CN(C)P(=O)(N(C)C)N(C)C | -2
in CNC(C)=O | -2.03
in CNC=O | -1.57
in ClC(Cl)C(Cl)Cl | -2.38
in Clc1cccc2ccccc12 | -2.24
in Ic1ccccc1 | -2.37
in N#CCCCCC#N | -1.06
in N#CCc1ccccc1 | -1.78
in N#Cc1ccccc1 | -2.21
in O | 2.39
in O=C1CCCCC1 | -2.58

Cc1ccccc1
Settings | solvation free energy, 298 K [kcal/mol]
in Brc1ccccc1 | -5.15
in C1CCCCC1 | -4.89
in C1CCOC1 | -5.44
in C1COCCO1 | -5.15
in C=CCCCCCCCCCCCCCC | -4.57
in CC1CCS(=O)(=O)C1 | -4.64
in CC1COC(=O)O1 | -4.43
in CC#N | -4.72
in CC(=O)N(C)C | -4.91
in CC(=O)O | -4.57
in CC(=O)c1ccccc1 | -4.93
in CC(C)(C)O | -4.41
in CC(C)=O | -4.97
in CC(C)CC(C)(C)C | -4.66
in CC(C)CCCC(C)CCCC(C)CCCCC(C)CCCC(C)CCCC(C)C | -4.43
in CC(C)CCO | -4.47
in CC(C)CO | -4.37
in CC(C)O | -4.38
in CC(C)OC(C)C | -4.89
in CC(Cl)Cl | -5.32
in CC(O)CO | -3.58
in CCBr | -5.44
in CCC#N | -5.16
in CCC(C)=O | -5.07
in CCCC#N | -5.01
in CCCCC | -4.75
in CCCCC(CC)COC(=O)CCCCC(=O)OCC(CC)CCCC | -4.78
in CCCCC(CC)COC(=O)c1ccccc1C(=O)OCC(CC)CCCC | -4.55
in CCCCCC | -4.78
in CCCCCCC | -4.74
in CCCCCCCCCC | -4.66
in CCCCCCCCCCCCCCCC | -4.57
in CCCCCCCCO | -4.5
in CCCCCCO | -4.53
in CCCCCO | -4.49
in CCCCCl | -5.16
in CCCCN(C=O)CCCC | -4.91
in CCCCO | -4.52
in CCCCOC(=O)c1ccccc1C(=O)OCCCC | -4.82
in CCCCOC(C)=O | -5.5
in CCCCOCCCC | -4.88
in CCCO | -4.51
in CCN1CCCC1=O | -5.06
in CCN(CC)C(C)=O | -4.97
in CCN(CC)CC | -4.93
in CCNC(C)=O | -4.57
in CCNC=O | -4.49
in CCO | -4.46
in CCOC(=O)c1ccccc1C(=O)OCC | -4.68
in CCOC(C)=O | -5.04
in CCOCC | -5.12
in CCOCCOCCOCC | -4.96
in CCOc1ccccc1 | -5.02
in CN1CCCC1=O | -4.95
in CN1CCCCC1=O | -5.02
in CN(C)C=O | -4.89
in CN(C)P(=O)(N(C)C)N(C)C | -5
in CNC(C)=O | -4.57
in CNC=O | -4.35
in CO | -4.35
in COCCO | -4.55
in COc1ccccc1 | -5.04
in CS(C)=O | -4.53
in Cc1ccc(C)cc1 | -5.08
in Cc1cccc(C)n1 | -5.1
in Cc1cccc(O)c1 | -4.63
in Cc1ccccn1 | -5.12
in ClC(Cl)(Cl)Cl | -5.18
in ClC(Cl)Cl | -5.53
in ClCCCl | -5.3
in ClCCl | -5.5
in Clc1ccccc1 | -5.2
in FC(F)(F)C(F)(F)C(F)(F)C(F)(F)C(F)(F)C(F)(F)F | -3.08
in Fc1c(F)c(F)c(F)c(F)c1F | -5.33
in Fc1ccccc1 | -5.24
in ICI | -4.53
in Ic1ccccc1 | -5.03
in NC=O | -3.02
in NCCO | -3.5
in Nc1ccccc1 | -4.6
in O | -0.85
in O=C1CCCCC1 | -5.13
in O=C1CCCO1 | -4.72
in O=CN1CCOCC1 | -4.48
in O=Cc1ccco1 | -4.56
in OCCCCCO | -3.84
in OCCCCO | -3.79
in OCCCO | -3.52
in OCCO | -3.02
in OCCOCCOCCOCCO | -3.99
in OCCS | -4.12
in OCc1ccccc1 | -4.53
in S=C=S | -5.33
in [2H]O[2H] | -0.99
in c1ccc2ncccc2c1 | -4.82
in c1ccc(COCc2ccccc2)cc1 | -4.79
in c1ccccc1 | -5.32
in c1ccncc1 | -5.11

Brc1ccccc1
Settings | solvation free energy, 298 K [kcal/mol]
in C1CCOC1 | -6.45
in C1COCCO1 | -6.45
in CCCCCC | -5.66
in CCCCCCC | -5.72
in CCCCCCCCCC | -5.43
in CCCCCCCCCCCCCCCC | -5.47
in CN(C)C=O | -6.21
in COCCO | -5.73
in ClC(Cl)(Cl)Cl | -6.23
in NC=O | -4.11
in O | -1.46
in OCCO | -4.42

COc1ccc2c(c1)c(CC(=O)O)c(C)n2C(=O)c1ccc(Cl)cc1
Settings | solvation free energy, 298 K [kcal/mol]
in O | -15.1

Clc1c(Cl)c(Cl)c2ccccc2c1Cl
Settings | solvation free energy, 298 K [kcal/mol]
in CCCCCCCCC=CCCCCCCCC(=O)OCC(COC(=O)CCCCCCCC=CCCCCCCCC)OC(=O)CCCCCCCC=CCCCCCCCC | -9.56
in O | -2.69

O=S1(=O)CCCC1
Settings | solvation free energy, 298 K [kcal/mol]
in O | -8.61

CN
Settings | solvation free energy, 298 K [kcal/mol]
in CCCCCC | -1.64
in CCCCO | -2.89
in CN(C)C=O | -2.66
in ClC(Cl)(Cl)Cl | -2.33
in ClC(Cl)Cl | -3.16
in O | -4.56
